The text below walks through data of paper PMC3734263, “Fatty Acid Amide Hydrolase-Dependent Generation of Antinociceptive Drug Metabolites Acting on TRPV1 in the Brain” (PLoS ONE, 2013).

Molecules are shown by their SMILES. Where “and” joins values, the source holds several entries; their conditions need not be identical. Equal entries are not always repeated. A value given as a limit tells only on which side of the number the result lay.

Data set [1] in a line: Contents of amines and lipid metabolites in blood and brain after i.p. injection in mice (LC-MS/MS). The format is in vivo, mouse. Here is the method:
Twenty min after drug administration, the animals were anesthetized by CO2 (rats) or isoflurane (mice) inhalation and decapitated. The brain was removed from the skull and blood was collected in test tubes, containing 60 µl buffered citrate, and the tissues snap frozen in liquid nitrogen before storage at −70°C.
(§1) The whole brain was homogenized in ice-cold 10 mM Tris buffer (ml/g tissue) at pH 7.6. The buffer solution contained 1 mM EDTA, 0.3 mM ascorbic acid and 10 µM methylarachidonylfluorophosphonate (MAFP) to prevent degradation of AM404, arvanil, olvanil, anandamide and 2-arachidonoylglycerol. Aliquots (200 µl) of blood and homogenates were precipitated with 1 ml ice-cold acetone, containing AM404-D4 (5 nM) or anandamide-D8 (100 nM) as internal standard. After centrifugation at 25,200 g for 30 min at 4°C, the supernatants were collected in polypropylene tubes and vacuum evaporated. The protein content of the pellet was determined with Coomassie protein assay (Pierce; Illinois, USA), using bovine serum albumin as standard. […] Samples were analyzed on a Waters Aquity UPLC system coupled to a Sciex 5500 tandem mass spectrometer (LC-MS/MS; AB Sciex; Massachusetts, USA) or a Perkin Elmer 200 HPLC system coupled to an API 3000 tandem mass spectrometer (LC-MS-MS; Applied Biosystems/MDS-SCIEX).
(§2) Quantification of AM404, HPODA, arvanil and olvanil. Samples were analyzed on a Waters Aquity UPLC system coupled to a Sciex 5500 tandem mass spectrometer. Sample aliquots of 5 µl were injected into an Acquity UPLC BEH C18 column (100 × 2 mm, 1.7 µm; Waters) held at 50°C. All mobile phases were water-acetonitrile gradients, containing 0.1% formic acid and using a flow rate of 400 µl/min. The acetonitrile content was initially 30%, then increased linearly to 100% over 7 min and kept at this level for 4 min, followed by an equilibration period at 30% for 2 min. The electrospray interface was operating in the positive ion mode at 550°C and the ion spray voltage was set to 5000 volts. The mass transitions (m/z) used were the following: 396.2/110.1 for AM404, 374.2/110.0 for HPODA, 400.2/114.0 for AM404-D4, 440.3/137.1 for arvanil and 418.3/137.1 for olvanil. The declustering potentials were between 96 and 130 volts and the collision energies between 25 and 41 volts.
Quantification of 4-aminophenol and HMBA. Sample aliquots of 5 µl were injected into a Hypercarb column (50 × 2.1 mm; Thermo). All mobile phases were water-acetonitrile gradients, containing 0.1% formic acid. The acetonitrile content was initially 2%, then increased linearly to […] over 5 min and then kept at 100% for 1 min, followed by an equilibration period at 2% for 1.5 min. The electrospray ion source was set at 550°C and used in the positive ion mode with an ion spray voltage of 5000. […] HMBA loses the amino group already in the source of the MS and therefore the mass transition used was 137.0/94.0. The declustering potentials were 100 and 90 volts and the collision energies 21 and 29 volts. No internal standard was used for these analyses.
The contents of the compounds were expressed either in moles or as normalized peak areas (nPA) and related to the protein content in the samples. The nPA was obtained by dividing the peak area of the analyte with the peak area for the internal standard in the same sample. The detection limits were calculated as the concentrations corresponding to three times the standard deviation of the blanks. When levels were below detection limit, numerical values of half the detection limit were used in the calculations.

Data set [2] has as its system mice. The experiment in a line: Spontaneous locomotor activity in actimetry boxes. In kind it is in vivo, mouse. As to conditions: 10 min before test. Here is the method: Mice were placed in actimetry boxes (Actisystem; Apelex, France) and spontaneous motor activity was assessed by determining the number of crossings of light beams during 15 min.
In data set [3] the test system is mice. The experiment in a line: Formalin test, mouse. The format is in vivo. As to conditions: for formalin test phases: HMBA 100 mg/kg. How it is done:
(§3) The animals received an intraplantar injection of a 2.5% formalin solution (50 µl rat, 25 µl mouse) into a hind paw. The time spent biting and licking of the injected paw was monitored during the two typical phases of the nociceptive response (phase I: 0–5 min; phase II: 20–40 min in rats or 15–40 min in mice).

The subject of data set [4] is mice. As to the kind of experiment: von Frey filament test, mouse. In kind it is in vivo. As to conditions: 30 mg/kg i.p. An excerpt:
Calibrated von Frey filaments (0.0045–5.4950 g) were used to induce light noxious mechanical stimulation in mice. Tests were commenced after one hour of habituation. Filaments of increasing stiffness were applied five times perpendicular to the plantar surface of the hindpaw and pressed until bending. The first filament that evoked at least three consecutive responses was assigned as the threshold (cut-off 2 g).

Data set [5] concerns mice. The experiment in a line: Tail immersion test, mouse. The format is in vivo. As to conditions: 30 mg/kg i.p. How it is done: Tails of mice were submerged in a hot water bath (46°C) and the withdrawal latency recorded (cut-off 15 s). The mean of four baseline values were determined before drug administration.
Data set [6] deals with rats. The experiment in a line: Formalin test, rat. In kind it is in vivo. As to conditions: 4-aminophenol 10, 30 and 100 mg/kg i.p. How it is done:
as §3

Data set [7] can be described thus: Global brain levels of endocannabinoids in the rat after 4-aminophenol. The format is in vivo. Conditions: 4-aminophenol 100 mg/kg i.p.; 15, 30, 45 and 60 min. How it is done:
as §1
Quantification of anandamide and 2-arachidonoylglycerol. Anandamide (m/z 348.2/62.0), anandamide-D8 (m/z 356.4/63.0) and 2-arachidonoylglycerol (m/z 379.2/287.0) were determined as previously described. Since 2-arachidonoylglycerol is non-enzymatically converted to 1-arachidonoylglycerol, the content of 2-arachidonoylglycerol was estimated as the sum of these lipids. […]

Data set [8] concerns rats. Conditions: 4-aminophenol three doses, data not shown.
In a further data set the test system is rodents. Conditions: doses not far from those eliciting antinociception in rodents; cited from earlier work.
The subject of data set [9] is rats. The experiment in a line: Paw pressure test, rat.
Description: The behavioural tests were performed in a quiet room and evaluated by a single investigator in a blinded manner. Treatments and/or genotypes were randomized in blocks and the number of animals in each block corresponded to the number of treatments and/or genotypes compared. […] Each animal was exposed to only one treatment.
The rats were submitted to the paw pressure test, using an Ugo Basile analgesy meter with a probe tip diameter of 1 mm (Bioseb, France). Nociceptive thresholds, expressed in grams (g), were measured by applying an increasing pressure to the right hind paw until a squeak (vocalization thresholds) was obtained (cut-off 750 g). Two consecutive stable vocalisation threshold values were first obtained (baseline).
Intrathecal injections were performed on anaesthetised rats held in one hand by the pelvic girdle. A 25 gauge 1 inch needle connected to a 25 µl Hamilton syringe was then inserted into the subarachnoidal space between lumbar vertebrae L5 and L6 until a tail flick was elicited. The syringe was held in position for few seconds after the injection of a volume of 10 µl [49]. All injections were performed under isoflurane anaesthesia (4% induction, 2% maintenance).
A short description of data set [10]: Formation of arvanil and olvanil in brain homogenates incubated with HMBA. The format is in vitro ADME, rat. As to conditions: HMBA 100 µM, 60 min. How it is done: Rat brain homogenate were prepared, as previously described. Brains were homogenized in Tris buffer (10 mM, pH 7.6), containing ethylenediaminetetraacetic acid (EDTA; 1 mM), at volumes of 5–10 ml/g tissue. Experiments were carried out on aliquots of 200 µl homogenate at 37°C as further explained in the text. The reactions were stopped by adding 1 ml ice-cold acetone, containing 1 µM [^2H8]-anandamide. The samples were kept on ice until the acetone phase was vacuum evaporated.
as §2, with “The declustering potentials were between 96 and 130 volts and the collision energies between 25 and 41 volts.” left out

The target in the next data set is T1, TRPV1 (Rattus norvegicus, UniProt O35433).
T1 construct: rat mesenteric arterial segments precontracted with phenylephrine; from tissue; host or cells: rat isolated mesenteric arterial segments (Sprague-Dawley rats)
T1 sequence (O35433 whole entry): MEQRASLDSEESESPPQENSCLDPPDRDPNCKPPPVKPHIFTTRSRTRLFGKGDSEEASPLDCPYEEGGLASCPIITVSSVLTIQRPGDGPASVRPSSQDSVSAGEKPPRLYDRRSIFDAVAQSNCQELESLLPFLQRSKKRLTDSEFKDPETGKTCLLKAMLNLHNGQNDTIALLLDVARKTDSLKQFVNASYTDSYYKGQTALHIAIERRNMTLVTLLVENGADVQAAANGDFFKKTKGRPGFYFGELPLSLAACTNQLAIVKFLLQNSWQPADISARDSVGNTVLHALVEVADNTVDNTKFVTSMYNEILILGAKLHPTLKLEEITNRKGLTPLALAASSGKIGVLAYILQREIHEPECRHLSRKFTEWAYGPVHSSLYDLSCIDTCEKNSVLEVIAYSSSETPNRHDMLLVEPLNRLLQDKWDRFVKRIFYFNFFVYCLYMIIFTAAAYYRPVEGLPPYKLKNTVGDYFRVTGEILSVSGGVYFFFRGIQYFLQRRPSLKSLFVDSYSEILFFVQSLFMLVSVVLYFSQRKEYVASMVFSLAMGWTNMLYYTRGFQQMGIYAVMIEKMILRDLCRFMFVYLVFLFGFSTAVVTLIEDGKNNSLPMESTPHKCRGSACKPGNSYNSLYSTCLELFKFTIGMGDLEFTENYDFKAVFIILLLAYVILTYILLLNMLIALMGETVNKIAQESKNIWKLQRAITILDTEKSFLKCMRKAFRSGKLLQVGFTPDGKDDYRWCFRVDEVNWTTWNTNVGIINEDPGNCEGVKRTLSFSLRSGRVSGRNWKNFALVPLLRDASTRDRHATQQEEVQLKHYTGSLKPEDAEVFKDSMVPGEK
The experiment in a line: TRPV1 activation assessed as nerve-mediated vasorelaxation in rat isolated mesenteric arteries. The format is cell-based. How it is done: TRPV1 activation was assessed indirectly on rat isolated mesenteric arteries, using nerve-mediated vasorelaxation as readout. Briefly, arterial segments (2 mm long) were suspended between two stainless steel wires in temperature-controlled tissue baths (37°C), containing aerated (95% O2 and 5% CO2) physiological salt solution (composition in mM: NaCl 119, KCl 4.6, CaCl2 1.5, MgCl2 1.2, NaHCO3 15, NaH2PO4 1.2 and D-glucose 6; pH 7.4), under a passive load of 2 mN. One of the wires was connected to a force-displacement transducer model FT03 C (Grass Instruments; Rhode Island, USA) for isometric tension recording. Vasorelaxation was studied in arterial segments submaximally contracted with phenylephrine. Increasing concentrations of AM404, arvanil, olvanil and HPODA in the absence and presence of capsazepine (3 µM) were then added cumulatively to determine concentration-response relationships. All experiments were performed in the presence of indomethacin (10 µM) and N^ω-nitro-L-arginine (300 µM) to reduce cyclooxygenase and nitric oxide synthase activity, respectively.
Data are presented as the mean ± SEM, and n indicates the number of animal tested in each group. pEC50 of the lipid metabolites indicates the negative log concentration that elicited half-maximal vasorelaxation. Mann-Whitney U test or Student’s t-test was used when two groups were compared. When multiple groups were compared, Kruskal-Wallis one-way ANOVA followed by Dunn’s multiple comparisons test was used. Data from the paw pressure test were analyzed by repeated measures two-way ANOVA followed by Sidak’s or Dunnett’s multiple comparisons test. The level of statistical significance was set at p<0.05. GraphPad Prism 6.0 software (California, USA) was used in all calculations and statistical analyses.

In another data set the test system is rat orthologue of TRPV1. Also noted: method as in PMID 11159715. Conditions: 45Ca2+ uptake assay, CHO cells expressing rat TRPV1; cited from earlier work.
The subject of a further data set is human TRPV1. Also noted: method as in PMID 11033355. As to conditions: HEK293 cells expressing human TRPV1, fluorometric calcium imaging; cited from earlier work.
Setting [11] is: 4-aminophenol 30 mg/kg i.p., mouse.
Where [12] appears, read: 4-aminophenol 100 mg/kg i.p., mouse.
[13] abbreviates: 20 min after 4-AP 30 mg/kg i.p., mouse.
Setting [14] is: 20 min after 4-AP 100 mg/kg i.p., mouse.

For orientation: EC50 means the midpoint of the concentration-response curve.

On to `Nc1ccc(O)cc1` [4-aminophenol], for which the entries for the “quotient between brain levels of 4-aminophenol and AM404” value in [1] (setting [11]) and in data set [1] (setting [12]) were 223 and 1,547, respectively. Further, the “quotient between brain levels of 4-aminophenol and HPODA” value is given as 951 in data set [1] (setting [11]) and 9,376 in data set [1] (setting [12]). The “Blood 4-AP” value in data set [1] (setting [13]) is 283 ± 15 nmol/g; in [1] (setting [14]), 878 ± 157 nmol/g. Further, the “Brain 4-AP” value came out at 91 nmol/g in [1] (setting [13]); 91 ± 12 nmol/g in data set [1] (20 min after 4-AP 30 mg/kg i.p., mouse, listed as 4-AP); 7470 ± 1720 nmol/g in [1] (setting [14]). For the same compound, the locomotor activity entry in the data set with mice [2] (4-aminophenol 10, 30 and 100 mg/kg i.p.) is on record as “reduced locomotor activity after the highest dose”; in the data set with rats [8], “tolerated all three doses”. For the same compound, the “licking time in formalin test” value in the data set on mice [3] (30 mg/kg i.p., FAAH+/+ mice) was “reduced the licking time during the first and second phases”. Also, the “antinociception in formalin test” value in the data set on mice [3] (30 mg/kg i.p., FAAH−/− mice) was “failed to produce antinociception”. For the same compound, the “antinociceptive activity in formalin test” value in the data set with mice [3] (30 mg/kg i.p., TRPV1−/− mice) is recorded as “lost”. The “withdrawal threshold in von Frey test” value with mice [4] (FAAH+/+ mice) is listed as “increased the withdrawal threshold”. Further, the “antinociception in von Frey test” value in the data set on mice [4] (FAAH−/− mice) is reported as “failed to produce antinociception”. Besides, the “antinociceptive activity in von Frey test” value in the data set with mice [4] (TRPV1−/− mice) is “lost”. For the same compound, the “latency time in tail immersion test” value with mice [5] (FAAH+/+ mice) is listed as “increased”. For the same compound, the “antinociception in tail immersion test” value with mice [5] (FAAH−/− mice) is “failed to produce antinociception”. Besides, the “antinociceptive activity in tail immersion test” value in the data set with mice [5] (TRPV1−/− mice) is listed as “lost”. Also, in the data set with rats [6], the “licking time in rat formalin test” value was “Only the highest dose reduced both phases”. The “global levels of the endocannabinoids anandamide and 2-arachidonoylglycerol in the rat brain” value in data set [7] is given as “did not affect the global levels”. The “nephrotoxic effect after a single exposure” value in the data set with rodents is “renal tubular necrosis”. Moreover, the “withdrawal threshold in rat paw pressure test” value in the data set with rats [9] (100 mg/kg i.p., 15 and 30 min after administration) was “increased the withdrawal threshold”; with rats [9] (intermediate dose 30 mg/kg i.p.), “effective only at 15 min”; in the data set on rats [9] (low dose 10 mg/kg i.p.), “inactive”.

As to `COc1cc(CN)ccc1O` [HMBA, 4-hydroxy-3-methoxybenzylamine], the “formation of N-acylamines in brain homogenates” value in [10] is “leads to the formation of arvanil and olvanil”. Besides, the locomotor activity result with mice [2] (HMBA 100, 200 and 300 mg/kg i.p.) is given as “only the dose of 100 mg/kg failed to affect locomotion”. Besides, the formalin test phases entry with mice [3] (FAAH−/− mice) is “affected none of these phases”; in the data set on mice [3] (wild-type mice), “inhibited both the first and second phases”.

As to `CCCCC/C=C\C/C=C\C/C=C\C/C=C\CCCC(=O)NCc1ccc(O)c(OC)c1` [arvanil, N-(4-hydroxy-3-methoxybenzyl)-5Z,8Z,11Z,14Z-eicosatetraenamide], the EC50 at TRPV1 is 0.2 nM. Besides, at TRPV1 (vasorelaxation readout), the “times more potent than AM404 as TRPV1 activator” value is > 100 times and 172 times. Moreover, on TRPV1 (vasorelaxation readout), the “times more potent than HPODA as TRPV1 activator” value is recorded as over 300 times. The “Brain Arvanil” value is 3.33 pmol/g in data set [1] (20 min after HMBA 100 mg/kg i.p., mouse); 3.33 ± 0.33 pmol/g in data set [1] (20 min after HMBA 100 mg/kg i.p., mouse, listed as Arvanil); 56 ± 10 pmol/g in data set [1] (20 min after HMBA 300 mg/kg i.p., mouse). The “brain content in FAAH−/− mice compared to FAAH+/+ littermates” value in [1] (20 min after i.p. 4-aminophenol (30 and 100 mg/kg) or HMBA (300 mg/kg)) is listed as “substantially reduced”. Besides, the concentration at 20 min in data set [1] (in vivo, HMBA 100 mg/kg, mouse, read-out: brain content of arvanil) came to 3.33 pM. In addition, the entries for the “times more potent than AM404” value in the data set with rat orthologue of TRPV1 and in the data set with human TRPV1 were 933 times and “approximately 50 times”, respectively.
